Reference: article PMC4436593, “Endoplasmic reticulum stress-independent activation of unfolded protein response kinases by a small molecule ATP-mimic” (eLife, 2015)
Entries after “also recorded” stand apart in the source; their conditions may differ.

What was measured:
[1] = tested on: XBP1 mRNA splicing in HEK293T cells; experiment: XBP1 mRNA splicing by RT-PCR in HEK293T cells; format: cell-based, human; details: [AD60] = 1 μM, 4 hr
Description: To examine the effects of IPA in living cells, we monitored the UPR in HEK293T cells using RT-PCR to measure splicing of XBP1 mRNA. […] At a concentration of 2 μM IPA, splicing was induced within 2 hr (lane 5). […] We used tunicamycin (Tm), which induces ER stress by blocking N-linked glycosylation, as a positive control to induce the UPR (Figure 2A, lanes 7, and Figure 2B, lane 4).
Cells were lysed and total RNA was collected (Total RNA Kit 1, EZ-RNA, EZNA [USA]). PolyA^+ mRNA was reverse transcribed with M-MLV (Invitrogen), and the resulting cDNA was used as a template for PCR amplification across the fragment of XBP1 cDNA containing the intron. Primers used to amplify human XBP1: 5′-[…]-3′ and 5′-[…]-3′. To amplify murine XBP1: 5′-[…]-3′ and 5′-[…]-3′. PCR conditions were as follows: 95°C for 5 min, 95°C for 1 min, 58°C for 30 s, 72°C for 30 s, and 72°C for 5 min, with 20 cycles of amplification. PCR products were resolved on a 2.5% agarose tris-acetate EDTA (TAE) gel. As previously reported, a hybrid amplicon species consisting of unspliced Xbp-1 annealed to spliced Xbp-1 can also be produced through this PCR reaction and was visible as a slower migrating band above the unspliced amplicon. The same cDNA was used as template for PCR of DERLIN-3 and HERPUD1, both ATF6 targets, and GAPDH, which was used as loading control. Primers used included the following: DERLIN-3, 5′-[…]-3′ and 5′-[…]-3′; HERPUD1-1, 5′-[…]-3′ and 5′-[…]-3′; GAPDH, 5′-[…]-3′ and 5′-[…]-3′. PCR conditions were: 95°C × 5 min, 95°C × 1 min, 56°C × 30 s, 72°C for 30 s for 25 cycles, 72°C for 5 min at 4°C. PCR products were resolved on a 2% agarose TAE gel.

[2] = tested on: XBP1 mRNA-splicing reporter (IRE1-mediated) in HEK293T cells; experiment: XBP1-luciferase splicing reporter in HEK293T cells; format: cell-based; details: Homo sapiens, HEK-293T, in the presence of Tm (2 μg/ml), read-out: IC50 of XBP1-luciferase-splicing reporter activation
From the text: A plasmid encoding a modified ER stress reporter construct consisting of a C-terminally FLAG-tagged firefly luciferase coding sequence fused to an N-terminal hemagglutinin-tagged tandem repeat of a partial sequence of XBP1 of human origin lacking its DNA-binding domain and containing the IRE1-cognate intron (pCAX-HA-2xXBP1ΔDBD(anATG)-LUC-F, kind gift of Takao Iwawaki [[Hosoda et al., 2010]]), was used as a template to generate a retroviral expression construct. The coding sequence of the reporter was amplified by PCR using primers with engineered BamHI and EcoRI sites and was subsequently cloned into the cognate sites of the retroviral expression vector pBABE.puro (Addgene) to generate construct DAA-A171. DAA-A171 was used to generate recombinant retroviral particles using standard methods and the resulting retroviral supernatant was used to transduce HEK293T cells, which were then subsequently selected with puromycin to create a stable reporter cell line.

[3] = tested on: protein translation in HEK293T cells; experiment: Metabolic labeling: [35S] methionine incorporation in HEK293T cells; format: cell-based; details: IPA 1 μM + GSK 1 μM
Description: HEK293T cells (500,000 cells/ml) were plated in 12-well flat bottom culture cluster dishes (Costar, Fisher Scientific) 24 hr before the experiment. IPA (1 μM), or a combination of IPA with GSK2606414 (TRC inc. […] Cells lysates were kept on ice for 30 min before high-speed centrifugation followed by denaturation at 95°C. The samples were resolved on an SDS-polyacrylamide gel, which were then stained with Coomassie blue to ascertain protein loading. […] The resulting autoradiograms were quantified using ImageQuant software (Molecular Dynamics).

HEK293T cells = experiment: HEK293T cell viability (CellTiter-Blue, 24 hr); format: cell-based; details: 24 hr, 1 μM, listed as GSK
Description: HEK293T cells were grown in DMEM (Sigma) complete media containing 10% FBS, 10 units/ml penicillin (Invitrogen), and 10 μg/ml streptomycin (Invitrogen). Cells were plated at a density of 30,000 cells per well in 96-well black plates with clear flat bottoms (Corning, Sigma-Aldrich) 24 hr before the experiment. A 12-point semi-logarithmic dilution series of compounds was made starting at 30 μM not to exceed 0.1% DMSO after final dilution into the growth media. Viability assays were conducted over the course of 24 hr. Cell viability was determined using CellTiter-Blue (Promega) following the manufacturer's instructions. […] Experiments were done in triplicate, and mean values were computed for each data point.

[4] = tested on: PERK and eIF2α phosphorylation in HEK293T cells; experiment: PERK mobility shift and eIF2α phosphorylation by immunoblotting in HEK293T cells; format: cell-based
Description: To evaluate effects of IPA on the PERK branch, we measured the phosphorylation state of PERK and eIF2α by Western blotting. […] We also monitored PERK activation by phosphorylation of eIF2α, detected with a phospho-eIF2α-specific antibody (Figure 3C).
Cells were lysed in 50 mM Tris-HCl, 2% SDS, 10% glycerol, 0.01% bromophenol blue, pH 6.8 supplemented with phosphatase inhibitors (Sigma) and protease inhibitors (Roche). 30 μg to 50 μg of total protein was loaded on each lane of 8% or 10% SDS-PAGE gels. The separated proteins were then transferred onto nitrocellulose membranes for immunoblotting. The following antibodies and dilutions were used: anti-β-actin 1:10,000 (A5441, Sigma), anti-total PERK at 1:1000 (C33E10, Cell Signaling Technology), anti-phospho eIF2α at 1:1000 (3597S, Cell Signaling Technology), anti-total eIF2α at 1:1000 (L57A5, Cell Signaling Technology). After overnight incubation with primary antibody, membranes were washed in PBS with 0.05% Tween and incubated in HRP-coupled secondary antibody anti-rabbit (611–1302, Rockland) or anti-mouse (610–1302, Rockland) diluted at 1:5000 in wash buffer. Immunoreactive bands were detected by chemiluminescence.

PERK = tested on: PERK; set-up: method as in Axten et al., 2012; Moreno et al., 2013; details: ref Axten et al., 2012; Moreno et al., 2013; read-out: EC50 of PERK inhibition in cells; cited from earlier work

Structure (SMILES): Nc1ncnc2c1c(-c1ccc(NC(=O)Nc3cccc(C(F)(F)F)c3)cc1)nn2C1CCCC1 [AD60, reference compound]
- effect on Tm-induced XBP1 mRNA splicing ([1]; Tm): inhibited Tm-induced XBP1 mRNA splicing
- effect on IPA-induced XBP1 mRNA splicing ([1]; up to highest IPA concentration tested): fully ablated IPA-induced XBP1 mRNA splicing
- IC50 [2]: 750 nM

Structure (SMILES): Cn1cc(-c2ccc3c(c2)CCN3C(=O)Cc2cccc(C(F)(F)F)c2)c2c(N)ncnc21 [GSK2606414, 7-methyl-5-(1-{[3-(trifluoromethyl)phenyl]acetyl}-2,3-dihydro-1H-indol-5-yl)-7H-p yrrolo[2,3-d]pyrimidin-4-amine, reference compound]
- effect on translation in IPA-treated cells [3]: restored translation to baseline levels
- effect on HEK293T cell viability at 1 μM (HEK293T cells): No effect on viability was observed; also recorded: no cell toxicity
- effect of compound alone on the PERK pathway ([4]; GSK 1 μM alone): No effect on the pathway was observed
- effect on IPA-induced PERK and eIF2α phosphorylation ([4]; GSK 1 μM, IPA 0.5 and 1 μM): abolished IPA-induced PERK and eIF2α phosphorylation
